Data reported in patent publication US12358879B2, “Heterocyclic compound” (Takeda Pharmaceutical Company Limited, priority 2019, dated 2025).

Test system: Skin fibroblasts derived from FA patients (GM4078)
Experiment: RSL3-induced cell death inhibitory activity in skin fibroblasts derived from FA patients (ATP, CellTiter-Glo)
Format: cell-based, human
Details: 3 μmol/l RSL3, 24 hours
Description: The effects of the compounds according to the present disclosure were evaluated according to the literature (M. G. Cotticelli et al, J Pharmacol Exp Ther 2019, 369, 47-54.).
Skin fibroblasts derived from FA patients (Coriell Institute for Medical Research, GM4078) were cultured in a culture medium consisting of DMEM (Thermo Fisher Scientific, 11995-065), 10% fetal bovine serum (Thermo Fisher Scientific, 26140-087), 1% GlutaMAX supplement (Thermo Fisher Scientific, 35050-061) and 1% Penicillin-Streptomycin solution (FUJIFILM Wako Pure Chemical Corporation, 168-23191).
For assay, the fibroblasts in the above culture medium were seeded in a 384-well plate at 1,500 cells per well, and the test compound and 3 μmol/l (final concentration) RSL3 were added to the plate the day after seeding. The concentration of the test compound added to the assay plate was 0.01, 0.1, 1 and 10 μmol/l as 4 points, and DMSO was added as a negative control for the test compound and RSL3. Twenty-four hours after the addition of RSL3/the test compound, CellTiter-Glo Luminescent Cell Viability Assay solution (Promega, G7573) was added to the plate to lyse the cells, and ATP was measured as an index of cell viability by detecting chemiluminescence with a plate reader.
RSL3-induced cell death inhibitory activity of the test compound=((X−C)/(T−C))×100 • X: ATP in the RSL3 addition/the test compound addition group, • C: ATP in the RSL3 addition/the test compound non-addition group, • T: ATP in the RSL3 non-addition/the test compound non-addition group

| SMILES | RSL3-induced cell death inhibitory activity (%) at each compound concentration (μmol/l) (compound 0.01 μmol/l) [%] | RSL3-induced cell death inhibitory activity (%) at each compound concentration (μmol/l) (compound 0.1 μmol/l) [%] | RSL3-induced cell death inhibitory activity (%) at each compound concentration (μmol/l) (compound 1 μmol/l) [%] | RSL3-induced cell death inhibitory activity (%) at each compound concentration (μmol/l) (compound 10 μmol/l) [%] |
| --- | --- | --- | --- | --- |
| Cn1nc(Nc2cccc3c2OCC3)c2ccc(C(C)(C)O)cc21 [Example 2, 2-{3-[(2,3-dihydro-1-benzofuran-7-yl)amino]-1-methyl-1H-indazol-6-yl}propan-2-ol] | 4.7 | 71.7 | 95.4 | 83.5 |
| Cn1cc(Nc2nn(C)c3cc(C(C)(C)O)ccc23)c(C(F)(F)F)n1 [Example 5, 2-(1-methyl-3-{[1-methyl-3-(trifluoromethyl)-1H-pyrazol-4-yl]amino}-1H-indazol-6-yl)propan-2-ol] | 27.8 | 53.9 | 84.5 | 82.7 |
| Cn1ncc(Nc2nn(C)c3cc(C(C)(C)O)ccc23)c1C(F)(F)F [Example 9, 2-(1-methyl-3-{[1-methyl-5-(trifluoromethyl)-1H-pyrazol-4-yl]amino}-1H-indazol-6-yl)propan-2-ol] | 30.0 | 61.8 | 96.1 | 84.6 |
| COc1cc(-c2cnn(C)c2)ccc1Nc1n[nH]c2cc(C(C)(C)O)ccc12 [Example 12, 2-{3-[2-methoxy-4-(1-methyl-1H-pyrazol-4-yl)anilino]-1H-indazol-6-yl}propan-2-ol] | 33.2 | 57.8 | 79.9 | 85.9 |
| Cn1nc(Nc2cnn3c2CCCC3)c2ccc(C(C)(C)O)cc21 [Example 19, 2-{1-methyl-3-[(4,5,6,7-tetrahydropyrazolo[1,5-a]pyridin-3-yl)amino]-1H-indazol-6-yl}propan-2-ol] | 11.1 | 32.1 | 58.9 | 78.9 |
| CCn1nc(Nc2cn(C)nc2OC)c2ccc(C(C)(C)O)cc21 [Example 36, 2-{1-ethyl-3-[(3-methoxy-1-methyl-1H-pyrazol-4-yl)amino]-1H-indazol-6-yl}propan-2-ol] | 14.0 | 28.5 | 55.8 | 86.0 |
| COc1nn(C)cc1Nc1nn(C(C)C)c2cc(C(C)(C)O)ccc12 [Example 39, 2-{3-[(3-methoxy-1-methyl-1H-pyrazol-4-yl)amino]-1-(propan-2-yl)-1H-indazol-6-yl}propan-2-ol] | 58.0 | 66.4 | 83.0 | 93.2 |
| COc1c(Nc2nn(C)c3cc(C(C)(C)O)ccc23)cnn1CC(C)C [Example 40, 2-(3-{[5-methoxy-1-(2-methylpropyl)-1H-pyrazol-4-yl]amino}-1-methyl-1H-indazol-6-yl)propan-2-ol] | 40.7 | 63.0 | 98.1 | 94.9 |
| COc1nn(C)cc1Nc1nn(C)c2ccc(C(C)(C)O)cc12 [Example 41, 2-{3-[(3-methoxy-1-methyl-1H-pyrazol-4-yl)amino]-1-methyl-1H-indazol-5-yl}propan-2-ol] | 21.3 | 40.8 | 58.1 | 71.7 |
| COc1c(Nc2nn(C)c3cc(C(C)(C)O)cc(F)c23)cnn1CC(C)C [Example 44, 2-(4-fluoro-3-{[5-methoxy-1-(2-methylpropyl)-1H-pyrazol-4-yl]amino}-1-methyl-1H-indazol-6-yl)propan-2-ol] | 38.3 | 61.3 | 78.4 | 95.0 |
| COc1nn(C)cc1Nc1nn(CC2CC2)c2cc(C(C)(C)O)ccc12 [Example 49, 2-{1-(cyclopropylmethyl)-3-[(3-methoxy-1-methyl-1H-pyrazol-4-yl)amino]-1H-indazol-6-yl}propan-2-ol] | 37.8 | 64.9 | 96.5 | 93.0 |
| Cn1nc(Nc2cnn3c2OCCC3)c2cc(F)c(C(C)(C)O)cc21 [Example 56, 2-{3-[(6,7-dihydro-5H-pyrazolo[5,1-b][1,3]oxazin-3-yl)amino]-5-fluoro-1-methyl-1H-indazol-6-yl}propan-2-ol] | 47.4 | 69.3 | 94.2 | 90.3 |
| Cn1nc(NC2CCCCC2)c2cc(C(C)(C)O)ccc21 [Example 59, 2-[3-(cyclohexylamino)-1-methyl-1H-indazol-5-yl]propan-2-ol] | 48.0 | 65.9 | 93.3 | 95.9 |
| COc1nn(C)cc1Nc1nn(C2CCC2)c2cc(C(C)(C)O)ccc12 [Example 68, 2-{1-cyclobutyl-3-[(3-methoxy-1-methyl-1H-pyrazol-4-yl)amino]-1H-indazol-6-yl}propan-2-ol] | 49.5 | 66.1 | 95.5 | 93.7 |
| COc1nn(C)cc1Nc1nn(C2CCC2)c2ccc(C(C)(C)O)cc12 [Example 70, 2-{1-cyclobutyl-3-[(3-methoxy-1-methyl-1H-pyrazol-4-yl)amino]-1H-indazol-5-yl}propan-2-ol] | 12.1 | 86.1 | 89.2 | 82.2 |
| COc1nn(C)cc1Nc1nn(CC2CC2(F)F)c2cc(C(C)(C)O)ccc12 (stereo not drawn) [Example 77, 2-{1-[(2,2-difluorocyclopropyl)methyl]-3-[(3-methoxy-1-methyl-1H-pyrazol-4-yl)amino]-1H-indazol-6-yl}propan-2-ol] | 17.7 | 46.4 | 76.2 | 77.1 |
| COCc1nn(C)cc1Nc1nn(C2CCC2)c2cc(C(C)(C)O)ccc12 [Example 82, 2-(1-cyclobutyl-3-{[3-(methoxymethyl)-1-methyl-1H-pyrazol-4-yl]amino}-1H-indazol-6-yl)propan-2-ol] | 1.9 | 41.6 | 64.0 | 73.8 |
| COCc1nn(C)cc1Nc1nn(CC2CC2)c2cc(C(C)(C)O)ccc12 [Example 84, 2-[1-(cyclopropylmethyl)-3-{[3-(methoxymethyl)-1-methyl-1H-pyrazol-4-yl]amino}-1H-indazol-6-yl]propan-2-ol] | 12.4 | 47.5 | 75.7 | 73.8 |
